Test results taken from patent US20250376472A1, “3-(PHENYLSULFONYL)-[1,2,3]TRIAZOLO[1,5A]QUINAZOLIN-5(4H)-ONE DERIVATIVES” (priority 2022, published 2025).

Target: T1, AgrA (Staphylococcus aureus, UniProt P0A0I7)
T1 construct: endogenous in cells; host or cells: S. aureus USA300 strain UAMS-1625 carrying a P3-lacZ reporter plasmid
Assay: cell-based
Design: species or system S. aureus
Conditions: for Ratio IC50 (in presence of HSA)/IC50 (in absence of HSA): 40 mg/mL HSA versus no HSA
Experimental: The inventive compounds are 3-(phenylsulfonyl)-[1,2,3]triazolo[1,5a]quinazolin-5(4h)-one derivatives comprising an N-bound piperazine or homopiperazine at the 8-position of the [1,2,3]triazolo[1,5a]quinazolin-5(4h)-one core, further substituted (on the second nitrogen atom) by an (optionally substituted) acetyl or propionyl amide group. […] Specifically, the reporter gene lacZ (which encodes the protein product β-galactosidase) was transfected into S. aureus with a plasmid under control of the P3 promoter. The compounds were serially diluted in lysogeny broth (LB), and incubated with S. aureus. Following incubation, the S. aureus cells were lysed and treated with 4-methylumbelliferyl-galactopyranoside (MUG). The β-galactosidase produced by expression of lacZ cleaved the MUG into galactopyranose and 4-methylumbelliferone, which was measured by fluorescence.
The resulting reporter strain was used to measure AgrA inhibitory activity as follows. From an overnight culture plate, cells were resuspended in 0.9% (w/v) saline solution and bacterial inoculum was prepared in LB medium with 5×10^5 CFU/ml. Compounds were two-fold serially diluted in LB and 50 μL of this 10× concentrated samples were added into the 96-deep well plate. 500 μL of bacterial suspension was finally added to the compounds or DMSO control. Plates were covered and incubated with shaking at 37° C. After 18 hours incubation, 100 μL was transferred to a new clear 96-well plate and the OD600 was measured using a TECAN Infinite F200 microplate reader to control for growth inhibition. Another 100 μL was transferred to a new black 96-well plate containing 30 μL of lysis buffer (20 mM Tris/HCl, 3 mM MgCl2, 0.5% Tween 20 (v/v), 0.5% NP-40 (v/v)) and the plate was incubated with shaking at 37° C. for 60 min. 20 μL of the substrate MUG (4-Methylumbelliferyl O-D-galactopyranoside) at 0.25 mg/ml was added and the fluorescence (excitation: 360 nm, emission: 450 mu) was measured with a TECAN Infinite F200 microplate reader after 3 hours incubation at 37° C. with shaking. The IC50 was determined using GraphPad PRISM after normalization to DMSO control.

[1] = LB medium supplemented with human serum albumin 40 mg/mL
[2] = LB medium, no human serum albumin, 18 hours incubation
[3] = IC50 at 40 mg/mL HSA, LB medium supplemented with human serum albumin 40 mg/mL
[4] = IC50 without HSA, LB medium, no human serum albumin, 18 hours incubation

T1 sequence (P0A0I7 whole entry): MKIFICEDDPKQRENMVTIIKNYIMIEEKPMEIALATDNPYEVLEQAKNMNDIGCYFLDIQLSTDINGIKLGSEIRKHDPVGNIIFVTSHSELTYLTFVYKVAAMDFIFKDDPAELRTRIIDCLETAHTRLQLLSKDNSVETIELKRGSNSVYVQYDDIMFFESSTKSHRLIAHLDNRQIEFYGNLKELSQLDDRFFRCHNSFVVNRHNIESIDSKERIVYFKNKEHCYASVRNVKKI

Row | SMILES | Ratio IC50 (in presence of HSA)/IC50 (in absence of HSA) | IC50 at 40 mg/mL HSA [1] | IC50 without HSA [2] | IC50 [3] | IC50 [4]
1 | Cc1ccc(S(=O)(=O)c2nnn3c2[nH]c(=O)c2ccc(N4CCN(CC(=O)NC5CCOCC5)CC4)cc23)c(C)c1 [Compound 87] | +++ (+++: ratio ≤ 25) | +++ (+++: IC50 ≤ 10 μg/mL) | +++ (+++: IC50 ≤ 1 μg/mL) | – | –
2 | Cc1ccc(S(=O)(=O)c2nnn3c2[nH]c(=O)c2ccc(N4CCN(CC(=O)NCC5CCN(C)CC5)CC4)cc23)c(C)c1 [Compound 88] | – | – | – | 16.5 to 82.4 µM | 1.65 to 8.24 µM
3 | Cc1ccc(S(=O)(=O)c2nnn3c2[nH]c(=O)c2ccc(N4CCN(CC(=O)NCCN5CCN(C)CC5)CC4)cc23)c(C)c1 [Compound 89] | – | – | – | 16.1 to 80.4 µM | 1.61 to 8.04 µM
4 | Cc1ccc(S(=O)(=O)c2nnn3c2[nH]c(=O)c2ccc(N4CCN(CC(=O)NCCN5CCCCC5)CC4)cc23)c(C)c1 [Compound 90] | – | – | – | 16.5 to 82.4 µM | 1.65 to 8.24 µM
5 | Cc1ccc(S(=O)(=O)c2nnn3c2[nH]c(=O)c2ccc(N4CCN(CC(=O)NCCN5CCOCC5)CC4)cc23)c(C)c1 [Compound 91] | – | – | – | 16.4 to 82.1 µM | 1.64 to 8.21 µM
6 | Cc1ccc(S(=O)(=O)c2nnn3c2[nH]c(=O)c2ccc(N4CCN(CC(=O)NCCCN5CCOCC5)CC4)cc23)c(C)c1 [Compound 92] | – | – | – | 16.1 to 80.3 µM | 1.61 to 8.03 µM
7 | CCN1CCCC1CNC(=O)CN1CCN(c2ccc3c(=O)[nH]c4c(S(=O)(=O)c5ccc(C)cc5C)nnn4c3c2)CC1 (stereo not drawn) [Compound 93] | – | – | – | < 16.5 µM | 1.65 to 8.24 µM
8 | Cc1ccc(S(=O)(=O)c2nnn3c2[nH]c(=O)c2ccc(N4CCN(CC(=O)NCCN5CCCC5)CC4)cc23)c(C)c1 [Compound 94] | – | – | – | 16.9 to 84.4 µM | 1.69 to 8.44 µM
9 | Cc1ccc(S(=O)(=O)c2nnn3c2[nH]c(=O)c2ccc(N4CCN(CC(=O)NCCC5CCCN5C)CC4)cc23)c(C)c1 (stereo not drawn) [Compound 95] | +++ (+++: ratio ≤ 25) | ++ (++: 10 μg/mL < IC50 ≤ 50 μg/mL) | ++ (++: 1 μg/mL < IC50 ≤ 5 μg/mL) | – | –
10 | Cc1ccc(S(=O)(=O)c2nnn3c2[nH]c(=O)c2ccc(N4CCN(CC(=O)NCC5CCCO5)CC4)cc23)c(C)c1 (stereo not drawn) [Compound 96] | – | – | – | 17.3 to 86.3 µM | < 1.73 µM
11 | Cc1ccc(S(=O)(=O)c2nnn3c2[nH]c(=O)c2ccc(N4CCN(CC(=O)NCCCN5CCCC5=O)CC4)cc23)c(C)c1 [Compound 97] | – | – | – | 16.1 to 80.5 µM | 1.61 to 8.05 µM
12 | Cc1ccc(S(=O)(=O)c2nnn3c2[nH]c(=O)c2ccc(N4CCCN(CC(=O)NC5CCN(C)CC5)CC4)cc23)c(C)c1 [Compound 102] | +++ (+++: ratio ≤ 25) | ++ (++: 10 μg/mL < IC50 ≤ 50 μg/mL) | ++ (++: 1 μg/mL < IC50 ≤ 5 μg/mL) | – | –
13 | Cc1ccc(S(=O)(=O)c2nnn3c2[nH]c(=O)c2ccc(N4CCCN(CC(=O)NC5CCOCC5)CC4)cc23)c(C)c1 [Compound 103] | – | – | – | < 16.8 µM | 1.68 to 8.42 µM
14 | Cc1ccc(S(=O)(=O)c2nnn3c2[nH]c(=O)c2ccc(N4CCN(CC(=O)Nc5ccccc5)CC4)cc23)c(C)c1 [Compound 104] | – | – | – | 17.5 to 87.5 µM | < 1.75 µM
15 | Cc1ccc(S(=O)(=O)c2nnn3c2[nH]c(=O)c2ccc(N4CCN(CC(=O)NCc5ccccc5)CC4)cc23)c(C)c1 [Compound 106] | – | – | – | 17.1 to 85.4 µM | < 1.71 µM
16 | Cc1ccc(S(=O)(=O)c2nnn3c2[nH]c(=O)c2ccc(N4CCN(CC(=O)NCc5cccc(O)c5)CC4)cc23)c(C)c1 [Compound 108] | – | – | – | 16.6 to 83.1 µM | < 1.66 µM
17 | Cc1ccc(S(=O)(=O)c2nnn3c2[nH]c(=O)c2ccc(N4CCN(CC(=O)NCCc5ccccc5)CC4)cc23)c(C)c1 [Compound 109] | – | – | – | 16.7 to 83.4 µM | < 1.67 µM
18 | Cc1ccc(S(=O)(=O)c2nnn3c2[nH]c(=O)c2ccc(N4CCN(CC(=O)NCc5cccnc5)CC4)cc23)c(C)c1 [Compound 111] | – | – | – | 17 to 85.2 µM | < 1.7 µM
19 | Cc1ccc(S(=O)(=O)c2nnn3c2[nH]c(=O)c2ccc(N4CCN(CC(=O)NCc5ccco5)CC4)cc23)c(C)c1 [Compound 113] | – | – | – | 17.4 to 86.9 µM | < 1.74 µM

Row | SMILES | Ratio IC50 (in presence of HSA)/IC50 (in absence of HSA) | IC50 at 40 mg/mL HSA [1] | IC50 without HSA [2] | IC50 [3] | IC50 [4]
20 | Cc1ccc(S(=O)(=O)c2nnn3c2[nH]c(=O)c2ccc(N4CCN(CC(=O)NCc5cocn5)CC4)cc23)c(C)c1 [Compound 114] | – | – | – | 17.3 to 86.7 µM | < 1.73 µM
21 | Cc1ccc(S(=O)(=O)c2nnn3c2[nH]c(=O)c2ccc(N4CCN(CC(=O)NCCn5cccc5)CC4)cc23)c(C)c1 [Compound 115] | – | – | – | 17 to 84.9 µM | < 1.7 µM
22 | Cc1ccc(S(=O)(=O)c2nnn3c2[nH]c(=O)c2ccc(N4CCN(CC(=O)NCCc5cccs5)CC4)cc23)c(C)c1 [Compound 116] | – | – | – | 16.5 to 82.5 µM | < 1.65 µM
23 | Cc1ccc(S(=O)(=O)c2nnn3c2[nH]c(=O)c2ccc(N4CCN(CC(=O)NCCn5ccnc5)CC4)cc23)c(C)c1 [Compound 117] | – | – | – | 17 to 84.8 µM | 1.7 to 8.48 µM
24 | Cc1ccc(S(=O)(=O)c2nnn3c2[nH]c(=O)c2ccc(N4CCCN(CC(=O)Nc5ccccc5)CC4)cc23)c(C)c1 [Compound 122] | – | – | – | 17.1 to 85.4 µM | < 1.71 µM
25 | Cc1ccc(S(=O)(=O)c2nnn3c2[nH]c(=O)c2ccc(N4CCCN(CC(=O)NCc5ccccc5)CC4)cc23)c(C)c1 [Compound 123] | – | – | – | 16.7 to 83.4 µM | < 1.67 µM
26 | Cc1ccc(S(=O)(=O)c2nnn3c2[nH]c(=O)c2ccc(N4CCN(CC(=O)N5CCC6(CCCC6)C5)CC4)cc23)c(C)c1 [Compound 126] | – | – | – | 16.6 to 82.8 µM | < 1.66 µM
27 | Cc1ccc(S(=O)(=O)c2nnn3c2[nH]c(=O)c2ccc(N4CCN(CC(=O)N5CCC6(CCN(C)CC6)CC5)CC4)cc23)c(C)c1 [Compound 127] | – | – | – | 15.5 to 77.3 µM | < 1.55 µM
28 | Cc1ccc(S(=O)(=O)c2nnn3c2[nH]c(=O)c2ccc(N4CCN(CC(=O)N5CCCC6(CCN(C)CC6)C5)CC4)cc23)c(C)c1 [Compound 128] | – | – | – | 15.5 to 77.3 µM | 1.55 to 7.73 µM
29 | Cc1ccc(S(=O)(=O)c2nnn3c2[nH]c(=O)c2ccc(N4CCN(CC(=O)N5CCN6CCOCC6C5)CC4)cc23)c(C)c1 (stereo not drawn) [Compound 129] | +++ (+++: ratio ≤ 25) | +++ (+++: IC50 ≤ 10 μg/mL) | +++ (+++: IC50 ≤ 1 μg/mL) | – | –
30 | Cc1ccc(S(=O)(=O)c2nnn3c2[nH]c(=O)c2ccc(N4CCN(CC(=O)N5CCN6CCCC6C5)CC4)cc23)c(C)c1 (stereo not drawn) [Compound 130] | – | – | – | < 16.5 µM | < 1.65 µM
31 | Cc1ccc(S(=O)(=O)c2nnn3c2[nH]c(=O)c2ccc(N4CCN(CC(=O)NCCN)CC4)cc23)c(C)c1 [Compound 131] | – | – | – | 18.6 to 92.8 µM | 1.86 to 9.28 µM
32 | Cc1ccc(S(=O)(=O)c2nnn3c2[nH]c(=O)c2ccc(N4CCN(CC(=O)N5CCNCC5)CC4)cc23)c(C)c1 [Compound 134] | – | – | – | < 17.7 µM | 1.77 to 8.85 µM
33 | Cc1ccc(S(=O)(=O)c2nnn3c2[nH]c(=O)c2ccc(N4CCN(CC(=O)N5CCC(N)C5)CC4)cc23)c(C)c1 (stereo not drawn) [Compound 135] | – | – | – | 17.7 to 88.5 µM | 1.77 to 8.85 µM
34 | Cc1ccc(S(=O)(=O)c2nnn3c2[nH]c(=O)c2ccc(N4CCN(CC(=O)NC5CCNC5)CC4)cc23)c(C)c1 (stereo not drawn) [Compound 136] | – | – | – | 17.7 to 88.5 µM | 1.77 to 8.85 µM
35 | Cc1ccc(S(=O)(=O)c2nnn3c2[nH]c(=O)c2ccc(N4CCN(CC(=O)N5CCC(CN)C5)CC4)cc23)c(C)c1 (stereo not drawn) [Compound 137] | – | – | – | 17.3 to 86.4 µM | 1.73 to 8.64 µM
36 | Cc1ccc(S(=O)(=O)c2nnn3c2[nH]c(=O)c2ccc(N4CCN(CC(=O)NC5CNC5)CC4)cc23)c(C)c1 [Compound 138] | – | – | – | 18.2 to 90.8 µM | 1.82 to 9.08 µM
37 | Cc1ccc(S(=O)(=O)c2nnn3c2[nH]c(=O)c2ccc(N4CCN(CC(=O)N5CC(N)C5)CC4)cc23)c(C)c1 [Compound 139] | – | – | – | < 18.2 µM | 1.82 to 9.08 µM
